From patent US9249147B2, “Tyrosine kinase inhibitors” (CHEMBRIDGE CORPORATION, priority 2008, dated 2016) come the findings set out here.

Converted amounts (≈) assume the structure as drawn. Where two headings read alike, the source gives them in different places.

The subject of one data set is Karpas299. Briefly: Cell proliferation inhibition, ALCL line Karpas299. It is filed as cell-based. The settings on record: Homo sapiens, KARPAS-299; Example 4, most sensitive cell lines; read-out: Proliferation IC50 Karpas299. In outline: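 NPM-ALK-positive Karpas-299 cells (2×10^4 per well) were treated with compound at final concentrations of 25 to 0.78125 μM, with DMSO-only controls. Proliferation and viability were read colorimetrically by XTT reduction to formazan.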

Another data set addresses T1, CYP2D6 (Homo sapiens, UniProt P10635).
T1 construct: purchased Cerep (contract assay, ADMET Study 13170)
Briefly: CYP2D6 Inhibition (recombinant, MFC substrate). It is filed as in vitro ADME.

A further data set deals with hERG (Homo sapiens, UniProt Q12809). In words: hERG standard patch clamp in HEK293 (Cerep ADMET Study 13170). It is filed as cell-based. The settings on record: 1 μM. As for the experimental part: The cardiac potassium channel, hERG, is responsible for the rapid delayed rectifier current (IKr) in the human ventricle. Inhibition of IKr is the most common cause of cardiac action potential prolongation by noncardiac drugs. Increased action potential duration causes prolongation of the QT interval that has been associated with a dangerous ventricular arrhythmia, torsade de pointer.
Chain of hERG (Q12809 whole entry): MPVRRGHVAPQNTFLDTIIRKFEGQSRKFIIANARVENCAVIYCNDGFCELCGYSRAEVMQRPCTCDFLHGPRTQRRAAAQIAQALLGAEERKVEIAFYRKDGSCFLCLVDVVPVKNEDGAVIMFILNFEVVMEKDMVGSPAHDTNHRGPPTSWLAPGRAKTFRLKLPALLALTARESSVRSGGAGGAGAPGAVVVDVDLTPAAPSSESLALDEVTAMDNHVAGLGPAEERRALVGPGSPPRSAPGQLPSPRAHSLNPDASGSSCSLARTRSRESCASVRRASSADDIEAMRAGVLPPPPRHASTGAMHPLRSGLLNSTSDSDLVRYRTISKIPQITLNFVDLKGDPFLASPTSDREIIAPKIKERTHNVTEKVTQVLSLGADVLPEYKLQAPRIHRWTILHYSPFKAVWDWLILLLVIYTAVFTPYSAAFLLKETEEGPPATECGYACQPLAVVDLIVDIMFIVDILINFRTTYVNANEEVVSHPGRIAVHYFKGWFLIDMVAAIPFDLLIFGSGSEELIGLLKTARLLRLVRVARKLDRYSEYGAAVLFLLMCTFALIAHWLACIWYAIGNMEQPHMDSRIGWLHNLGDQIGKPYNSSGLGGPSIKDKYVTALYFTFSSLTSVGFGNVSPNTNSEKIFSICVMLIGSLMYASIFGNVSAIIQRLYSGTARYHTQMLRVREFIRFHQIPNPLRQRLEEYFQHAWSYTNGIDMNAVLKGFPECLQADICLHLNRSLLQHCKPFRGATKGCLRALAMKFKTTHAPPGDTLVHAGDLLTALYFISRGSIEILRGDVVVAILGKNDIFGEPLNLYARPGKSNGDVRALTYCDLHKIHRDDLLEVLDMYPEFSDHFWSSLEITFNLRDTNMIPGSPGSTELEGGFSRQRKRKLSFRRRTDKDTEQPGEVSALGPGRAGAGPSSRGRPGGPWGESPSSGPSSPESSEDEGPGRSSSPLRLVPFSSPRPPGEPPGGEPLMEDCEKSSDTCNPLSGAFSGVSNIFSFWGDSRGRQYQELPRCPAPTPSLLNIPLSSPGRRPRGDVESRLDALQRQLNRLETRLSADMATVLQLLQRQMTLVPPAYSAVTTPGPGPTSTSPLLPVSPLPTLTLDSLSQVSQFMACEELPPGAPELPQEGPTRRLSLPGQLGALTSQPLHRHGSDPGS
Compound (II) was initially tested at 1 μM concentration using a standard patch clamp protocol (Cerep ADMET Study 13170). The hERG channel was expressed in a human embryonic kidney (HEK293) cell line that lacks endogenous hERG channels. […] We have retested compound (II) in hERG assay in a range of lower concentrations to estimate IC50 of hERG inhibition more precisely (Qpatch 16 automated whole-cell patch clamp protocol in CHO-K1 cell line stably expressing hERG, Cerep hERG Study 13292). […] This kind of potency in hERG inhibition should not represent a significant clinical problem since the high degree of hERG inhibition would occur only at the compound concentrations above the expected therapeutic levels.
A general note: The hERG channel carries a current that helps repolarise heart muscle cells.

Data set [1] can be described thus: Aqueous Solubility (PBS, pH 7.4). The settings on record: for solubility: pH 7.4, PBS. Type of data set: physicochemical.
In a further data set the target is RET (Homo sapiens, UniProt P07949). In words: Invitrogen SelectScreen Z-lyte kinase assay, Ret. Type of data set: biochemical. Also noted: purchased Invitrogen (SelectScreen service). As to conditions: 100 μM ATP. As for the experimental part:
To evaluate selectivity versus other kinases, inhibition of various kinases by compound (II) was determined. In particular, IC50s for TrkA, Jak2, Axl tyrosine kinases were determined using ADP Hunter (DiscoverX) kinase assay. Single point profiling of compound (II) on 50 human tyrosine kinases and 10 Ser-Thr kinases was done at Upstate/Millipore by radiometric assay. […] The subset of the 520 kinases in the human kinome that were tested was strategically selected to cover most of the therapeutically relevant tyrosine kinases and to represent major branches of serine-threonine kinases.
Compound (II) was a multitargeted tyrosine kinase (TK) inhibitor with a distinct pattern of inhibition focused on ALK, Trk family, Ros and Ret kinases. Invitrogen SelectScreen (Z-lyte assay) produced the following IC5O values for this set of kinases: ALK 9.75 nM, TrkA 1.5 nM, TrkB 1.4 nM, TrkC 1.8 nM, Ret 7.1 nM, Ros 1.8 nM (all measured at 100 μM ATP). […] About 70% of the 50 TKs tested have selectivity in excess of 50-fold for ALK and higher for Ret, Ros and Trk family members.

What is called inhibition is how much of the control response was suppressed.

T1 sequence (P10635 whole entry): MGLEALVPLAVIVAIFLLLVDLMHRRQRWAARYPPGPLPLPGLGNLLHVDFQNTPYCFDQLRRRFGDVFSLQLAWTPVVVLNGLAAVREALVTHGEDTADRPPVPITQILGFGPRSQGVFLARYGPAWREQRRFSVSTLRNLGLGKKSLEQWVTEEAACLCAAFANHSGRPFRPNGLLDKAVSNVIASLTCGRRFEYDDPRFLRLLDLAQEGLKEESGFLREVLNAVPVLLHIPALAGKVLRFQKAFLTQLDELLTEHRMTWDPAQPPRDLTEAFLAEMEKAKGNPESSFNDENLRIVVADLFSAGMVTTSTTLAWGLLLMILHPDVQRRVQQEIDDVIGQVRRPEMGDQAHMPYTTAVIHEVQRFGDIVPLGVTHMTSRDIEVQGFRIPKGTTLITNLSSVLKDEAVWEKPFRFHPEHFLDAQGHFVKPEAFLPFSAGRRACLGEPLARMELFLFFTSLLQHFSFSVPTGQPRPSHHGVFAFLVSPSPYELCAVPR
Chain of RET (P07949 29-1114): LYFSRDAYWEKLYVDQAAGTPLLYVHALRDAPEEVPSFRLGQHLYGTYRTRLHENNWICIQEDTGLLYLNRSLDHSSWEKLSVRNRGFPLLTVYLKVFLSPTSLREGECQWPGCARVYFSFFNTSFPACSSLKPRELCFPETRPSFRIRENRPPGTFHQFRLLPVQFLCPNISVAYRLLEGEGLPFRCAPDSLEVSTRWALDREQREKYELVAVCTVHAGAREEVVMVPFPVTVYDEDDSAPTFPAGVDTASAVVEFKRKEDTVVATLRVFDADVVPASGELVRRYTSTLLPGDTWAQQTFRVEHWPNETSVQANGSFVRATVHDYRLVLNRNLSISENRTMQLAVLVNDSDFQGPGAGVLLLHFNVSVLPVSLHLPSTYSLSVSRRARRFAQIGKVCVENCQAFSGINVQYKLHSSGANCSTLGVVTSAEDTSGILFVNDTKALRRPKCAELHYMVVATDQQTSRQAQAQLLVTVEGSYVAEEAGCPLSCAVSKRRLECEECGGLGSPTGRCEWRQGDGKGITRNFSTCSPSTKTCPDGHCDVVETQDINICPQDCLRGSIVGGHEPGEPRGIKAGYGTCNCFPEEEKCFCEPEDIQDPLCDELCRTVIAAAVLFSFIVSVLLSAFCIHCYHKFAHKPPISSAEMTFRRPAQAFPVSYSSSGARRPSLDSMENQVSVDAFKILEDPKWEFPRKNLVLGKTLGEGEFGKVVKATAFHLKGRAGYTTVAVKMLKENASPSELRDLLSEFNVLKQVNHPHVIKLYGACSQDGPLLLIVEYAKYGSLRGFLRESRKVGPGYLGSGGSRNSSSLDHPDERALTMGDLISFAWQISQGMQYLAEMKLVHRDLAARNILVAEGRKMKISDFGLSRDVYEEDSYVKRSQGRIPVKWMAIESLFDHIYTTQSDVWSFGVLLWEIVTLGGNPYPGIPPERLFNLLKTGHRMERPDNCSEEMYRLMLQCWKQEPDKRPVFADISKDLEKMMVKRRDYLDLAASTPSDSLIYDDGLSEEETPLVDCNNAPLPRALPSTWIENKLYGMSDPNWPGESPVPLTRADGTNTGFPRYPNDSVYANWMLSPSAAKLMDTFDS

Regarding `Cc1ccc(F)cc1C[C@H](C)Nc1cc[nH]c(=O)c1-c1nc2cc3c(cc2[nH]1)C(=O)N(CCN1CCCC1)C3` [compound (II)], the IC50 in the data set with Karpas299 is 5 to 10 nM; at RET, 7.1 nM. In addition, the “CYP2D6 inhibition” value at CYP2D6 (1 μM and 5 μM) is on record as “No inhibition was detected”. In addition, on CYP2D6 (human, recombinant CYP2D6, probe MFC, 1.0E−06 M, Table 5B individual results, read-out: CYP2D6 % Inhibition of Control Values, 1st/2nd/3rd), the activity at 1 µM was found to be 101%. For the same compound, the activity at 5 µM at CYP2D6 (human, recombinant CYP2D6, probe MFC, 5.0E−06 M, Table 5B individual results, read-out: CYP2D6 % Inhibition of Control Values, 1st/2nd/3rd) came out at 84.9%. The inhibition at 1 µM at CYP2D6 (human, recombinant CYP2D6, probe MFC, 1.0E−06 M, read-out: CYP2D6 % Inhibition of Control Values) was 2%. The inhibition at 5 µM at CYP2D6 (human, recombinant CYP2D6, probe MFC, 5.0E−06 M, read-out: CYP2D6 % Inhibition of Control Values) was 16%. In addition, at hERG, the “% inhibition of tail current” value is given as 50.4%. For the same compound, in data set [1] (pH 7.4, 2.0E−04 M, individual data, listed as CRL241), the “Solubility 1st/2nd” value turned out to be 33.81 μm. In addition, the solubility in data set [1] (pH 7.4, 2.0E−04 M, Tables 9C, 9D, read-out: Solubility Mean) stood at 33.9 µM (≈ 17.9 µg/mL); in data set [1] (pH 7.4, 2.0E−04 M, individual data, read-out: Solubility 1st/2nd), 34 µM (≈ 18 µg/mL). For the same compound, in data set [1] (pH 7.4, test concentration 2.0E−04 M, 24 hours, RT), the solubility at 24 h came to 34 µM (≈ 18 µg/mL).
